Reference: PMC4496781, “Functional Roles of Aromatic Residues and Helices of Papiliocin in its Antimicrobial and Anti-inflammatory Activities” (Scientific Reports, 2015)
In brackets after ≈: the same amount, converted by molar mass.

How the values were obtained:
Eenterococcus faecalis = conditions: broth microdilution, 16 h incubation; three independent experiments in triplicate, SD 14.0%
Description: (§1) MICs of the peptides against six standard bacteria and four multidrug-resistant bacteria were determined by a broth microdilution assay as described previously. […] Cytotoxicities against mammalian cells were measured against human RBCs, mouse macrophage-derived RAW264.7 cells, and fibroblast NIH-3T3 cells. The anti-inflammatory activities of the peptides were examined by inhibiting nitrite production in LPS-stimulated RAW264.7 cells.

MDRAB 12035(R) = conditions: broth microdilution, 16 h; unit not given
Description: (§2) We examined the antimicrobial activities of the peptides against multidrug-resistant bacterial strains, including four gram-negative species (S. typhimurium 8009(R), E. coli 1229(R), P. aeruginosa 2095(R), and A. baumannii 12035(R); Table 3).
as §1

MDREC 1229(R) = conditions: broth microdilution, 16 h; unit not given
Description: as §2, §1

MDRPA 2095(R) = conditions: broth microdilution, 16 h; unit not given
Description: as §2, §1

MDRST 8009(R) = conditions: broth microdilution, 16 h; unit not given
Description: as §2, §1

[1] = test system: gram-negative bacteria (E. coli, S. typhimurium, P. aeruginosa); conditions: for Therapeutic Index (MHC/GM), gram-negative: ratio MHC (μM) over GM of MIC (μM); for GM of the MIC values, gram-negative: three gram-negative standard strains, 256 μM used when no activity at 128 μM
Description: (§3) This property is assessed by the therapeutic index which can be defined as a ratio of the […] against human hRBCs to the MIC against bacterial cells.
as §1

[2] = test system: gram-positive bacteria (B. subtilis, E. faecalis, S. aureus); conditions: for Therapeutic Index (MHC/GM), gram-positive: ratio MHC (μM) over GM of MIC (μM); for GM of the MIC values, gram-positive: three gram-positive standard strains, 256 μM used when no activity at 128 μM
Description: as §3, §1

human erythrocytes = experiment: Hemolytic activity; type: cell-based; conditions: for MHC (minimal peptide concentration that produces hemolysis): human RBCs, 200 μM entered when no detectable hemolysis at 100 μM
Description: (§4) We examined the cytotoxicity against human erythrocytes. […] Next, we examined the cytotoxicity of the peptides against RAW264.7 macrophage cells. We assessed the effects of the peptides on cell growth by measuring mitochondrial reduction of MTT to a colored product in live cells. […] On the other hand, PapC produced high cytotoxicity against RAW264.7 cells, even at low concentrations. […] In case of PapN-2A, Pap-5A, and Pap-2A5A, the cell survival rates at a peptide concentration of 100 μM were approximately 90% or more. Thus, Trp^2 and Phe^5 are important for the cytotoxic activity of papiliocin toward RAW264.7 cells.
as §1

[3] = test system: RAW264.7 macrophage cells; experiment: Cytotoxicity, MTT; type: cell-based, mouse
Description: as §4, §1

[4] = Calcein leakage from zwitterionic LUVs; conditions: EYPC/CH 10:1 LUVs, mimic human erythrocytes
Description: Figure 5 Dose-response curves of calcein leakage from (A) egg yolk phosphatidylcholine (EYPC)/egg yolk phosphatidylglycerol (EYPG) (7:3, w:w) and (B) EYPC/cholesterol (CH) large unilamellar vesicles (LUVs; 10:1, w-w) induced by the peptides. Calcein leakage was measured 2 min after the addition of papiliocin. The lipid concentration used in the leakage experiments was 64 μM.
None of the peptides containing the N-terminal helix permeated zwitterionic vesicles (10:1 [w/w] EYPC/CH) effectively. Zwitterionic vesicles mimic the outer leaflet components of human erythrocytes.
In order to investigate the mode of action, membrane permeabilization ability was monitored using a model membrane and E.coli. Calcein leakage induced by the peptides was measured in egg yolk phosphatidylcholine (EYPC)/egg yolk phosphatidylglycerol (EYPG) (7:3, w/w) and EYPC/cholesterol (CH) large unilamellar vesicles (LUVs; 10:1, w:w) as described previously. The depolarization assay was conducted with intact E. coli bacteria (KCTC 1682) as well as E. coli spheroplasts (ATCC 25922)[51][52]. The ability of peptide to depolarize the membrane is indicated by an increase in the fluorescence of diSC3-5. […] The membrane potential dissipating activity of the peptides can be calculated as follows: […]

Bacillus subtilis = conditions: broth microdilution, 16 h incubation; three independent experiments in triplicate, SD 14.0%
Description: as §1

Escherichia coli = conditions: broth microdilution, 16 h incubation; three independent experiments in triplicate, SD 14.0%
Description: as §1

Pseudomonas aeruginosa = conditions: broth microdilution, 16 h incubation; three independent experiments in triplicate, SD 14.0%
Description: as §1

Salmonella typhimurium = conditions: broth microdilution, 16 h incubation; three independent experiments in triplicate, SD 14.0%
Description: as §1

Staphylococcus aureus = conditions: broth microdilution, 16 h incubation; three independent experiments in triplicate, SD 14.0%
Description: as §1

E. coli (KCTC 1682) = experiment: Time-killing kinetics; type: cell-based, Escherichia coli; conditions: even at 4× MIC, 37 °C
[5] = test system: LPS-stimulated RAW264.7 cells; experiment: Inhibition of NO (nitrite) production; type: cell-based, mouse; conditions: 10 μM peptide stated for PapN series
From the text: When released from gram-negative bacteria, LPS causes septic shock by inducing the production of pro-inflammatory cytokines and NO[33]. To examine the structural mechanism of the anti-inflammatory activity of papiliocin, we indirectly measured inhibition of NO production by the peptides in LPS-simulated RAW264.7 macrophages. […] Papiliocin was markedly more efficient than papiliocin-2A, papiliocin-5A, or papiliocin-2A5A, implying that Trp^2 and Phe^5 are important for anti-inflammatory activity.
as §1

[6] = STD-NMR of peptides bound to LPS; type: binding; conditions: 0.5 mM peptide, 0.1 mg/mL LPS in D2O, pH 5.9, 298 K
Description: To investigate the mode of peptide interaction with LPS, we performed STD-NMR experiments.
(A) Papiliocin, (B) PapN, and (C) PapC. Spectral differences primarily constituted resonances fromn the peptide protons bound to LPS. The STD experiments were carried out using a peptide concentration of 0.5 mM in presence of 0.1 mg/mL LPS in D2O, pH 5.9 at 298 K.

| Compound | MIC, Eenterococcus faecalis (Eenterococcus faecalis) [µM] | MIC, MDRAB 12035(R) (MDRAB 12035(R)) [µM] | MIC, MDREC 1229(R) (MDREC 1229(R)) [µM] | MIC, MDRPA 2095(R) (MDRPA 2095(R)) [µM] | MIC, MDRST 8009(R) (MDRST 8009(R)) [µM] | Therapeutic Index (MHC/GM), gram-negative [1] | GM of the MIC values, gram-negative [1] [µM] | Therapeutic Index (MHC/GM), gram-positive [2] | GM of the MIC values, gram-positive [2] [µM] | MHC (minimal peptide concentration that produces hemolysis) (human erythrocytes) [µM] | permeabilization of zwitterionic vesicles, in words [4] | further results |
| --- | --- | --- | --- | --- | --- | --- | --- | --- | --- | --- | --- | --- |
| CC[C@H](C)[C@H](NC(=O)CN)C(=O)NCC(=O)N[C@@H](C)C(=O)N[C@H](C(=O)N[C@@H](CC(C)C)C(=O)N[C@@H](CCCCN)C(=O)N[C@H](C(=O)N[C@@H](CC(C)C)C(=O)N[C@H](C(=O)N[C@H](C(=O)NCC(=O)N[C@@H](CC(C)C)C(=O)N1CCC[C@H]1C(=O)N[C@@H](C)C(=O)N[C@@H](CC(C)C)C(=O)N[C@H](C(=O)N[C@@H](CO)C(=O)N[C@@H](Cc1c[nH]c2ccccc12)C(=O)N[C@H](C(=O)N[C@@H](CCCCN)C(=O)N[C@@H](CCCNC(=N)N)C(=O)N[C@@H](CCCCN)C(=O)N[C@@H](CCCNC(=N)N)C(=O)N[C@@H](CCC(N)=O)C(=O)N[C@@H](CCC(N)=O)C(N)=O)[C@@H](C)CC)[C@@H](C)CC)[C@@H](C)O)[C@@H](C)O)C(C)C)C(C)C [Melittin, reference compound] | 2.00 (≈ 5.69 µg/mL) | 4.00 (≈ 11.4 µg/mL) | 8.00 (≈ 22.8 µg/mL) | 2.00 (≈ 5.69 µg/mL) | 8.00 (≈ 22.8 µg/mL) | 0.098 | 4.00 | 0.117 | 3.33 | 0.391 | membrane-disrupting activities against both negatively charged and zwitterionic vesicles | cytotoxicity at the peptide's MIC ([3]; hRBCs and RAW264.7 cells (Fig. 4A,B)): high cytotoxicity at its MIC |
| AVAVVGQAATVVK-NH2 [PapC, C-terminal analog composed of C-terminal helix residues Ala25–Lys37 of papiliocin] | >128 | >128 | >128 | >128 | >128 | 0.007 | 213 | 0.006 | 256 | 1.56 | permeabilized zwitterionic vesicles effectively | MIC, Bacillus subtilis (Bacillus subtilis): >128 µM; MIC, Escherichia coli (Escherichia coli): 128 µM; MIC, Pseudomonas aeruginosa (Pseudomonas aeruginosa): >128 µM; MIC, Salmonella typhimurium (Salmonella typhimurium): >128 µM; MIC, Staphylococcus aureus (Staphylococcus aureus): >128 µM; hemolytic activity (human erythrocytes; human erythrocytes, 6.25 μM peptide): 49%; killing of E. coli within an hour (E. coli (KCTC 1682)): did not detectably kill bacteria within an hour; survival rate of RAW264.7 cells ([3]; MTT, 10 μM peptide): 44.2%; inhibition of NO production, in words [5]: does not inhibit NO production; STD effect in presence of LPS [6]: not detected for any region |
